Earlier results as cited in US20190110514A1, “KITS COMPRISING SATIETY-INDUCING FORMULATIONS” (PERORA GMBH, priority 2016, published 2019).

What was measured:
satiety signalling = conditions: infusion into the duodenum by feeding tube
[1] = rat feeding study; independent from intake

true digestibility of stearic acid from tristearin [1] [g/g]	Compound	satiety signalling (satiety signalling)
–	CCCCCCCCCCCC(=O)O [lauric acid]	strong satiety signalling
–	CCCCCCCC/C=C\CCCCCCCC(=O)O [oleic acid]	strong satiety signalling
0.15	CCCCCCCCCCCCCCCCCC(=O)OCC(COC(=O)CCCCCCCCCCCCCCCCC)OC(=O)CCCCCCCCCCCCCCCCC [tristearin]	–
